Measured values: patent US8124637B2, “Anthra [1, 2-d]imidazole-6,11-dione derivatives, preparation method and application thereof” (National Defense Medical Center, priority 2010, dated 2012)
“Also recorded” adds a separate entry of the source. Read-outs that look alike come from different tables or passages of the source.

What was measured:
[1] = test system: hTERT promoter (PhTERT) expression; assay: SEAP assay (PhTERT-SEAP reporter, H1299); assay type: cell-based, human; settings: for activity at 1 µM / activity at 10 µM / activity at 100 µM: Homo sapiens, NCI-H1299, PhTERT-SEAP (H1299); for activity at 1 µM: read-out: Relative SEAP activity (%); for activity at 10 µM / activity at 100 µM: read-out: Relative SEAP activity (%) (converted); for Relative SEAP activity (%): PhTERT-SEAP (H1299)
Experimental: H1299 were grown in RPMI 1640 media supplemented with 10% fetal bovine serum, 100 units/mL penicillin and […] streptomycin in a humidified atmosphere with 5% CO2 at 37° C. Culture media were changed every three days. To establish stable cell lines that the expression of hTERT could be monitored by a reporter system, a about 3.3 kbp DNA fragment ranging from −3338 to +1 bp of the hTERT gene (hTERT promoter, PhTERT) was subcloned upstream to a secreted alkaline phosphatase gene (SEAP) and transfected into H1299 bp electroporation. The stable clones were selected using G418. The stable clones derived from H1299 were cultured using conditions that are similar to their parental cells.
Secreted alkaline phosphatase was used as the reporter system to monitor the transcriptional activity of hTERT. Here, about 10^4 cells each were grown in 96-well plates and incubated at 37° C. for 24 hours and changed with fresh media. Varying amounts of drugs were added and cells were incubated for another 24 hours. Culture media were collected and heated at 65° C. for 10 min to inactivate heat-labile phosphatases. An equal amount of SEAP buffer (2 M diethanolamine, 1 mM MgCl2, and 20 mM L-homoarginine) was added to the media and p-nitrophenyl phosphate was added to a final concentration of 12 mM. Absorptions at 405 nm were taken, and the rate of absorption increase is determined (the increasing rate of absorbance at 405 nm was used to represent the activity of SEAP).

[2] = in vitro; settings: human, Relative MTT viability (%)
[3] = test system: H1299 cells
[4] = MTT assay (relative cell survival), H1299; settings: human, H1299 non-small cell lung cancer cells (PhTERT-SEAP), Relative MTT viability (%)
[5] = molecular target: T1, telomerase (total cell lysates of lung cancer cell line H1299) (Homo sapiens, UniProt O14746); assay: Telomere repeat amplification protocol (TRAP) assay; assay type: biochemical; settings: gel; for inhibition effect/activity of telomerase (TRAP): preliminary screening at 10 μM
T1 construct: As a source of telomerase, the total cell lysates derived from lung cancer cell line H1299 cells were used; endogenous in cells; host or cells: H1299 lung cancer cells (total cell lysate)
T1 sequence (O14746 whole entry): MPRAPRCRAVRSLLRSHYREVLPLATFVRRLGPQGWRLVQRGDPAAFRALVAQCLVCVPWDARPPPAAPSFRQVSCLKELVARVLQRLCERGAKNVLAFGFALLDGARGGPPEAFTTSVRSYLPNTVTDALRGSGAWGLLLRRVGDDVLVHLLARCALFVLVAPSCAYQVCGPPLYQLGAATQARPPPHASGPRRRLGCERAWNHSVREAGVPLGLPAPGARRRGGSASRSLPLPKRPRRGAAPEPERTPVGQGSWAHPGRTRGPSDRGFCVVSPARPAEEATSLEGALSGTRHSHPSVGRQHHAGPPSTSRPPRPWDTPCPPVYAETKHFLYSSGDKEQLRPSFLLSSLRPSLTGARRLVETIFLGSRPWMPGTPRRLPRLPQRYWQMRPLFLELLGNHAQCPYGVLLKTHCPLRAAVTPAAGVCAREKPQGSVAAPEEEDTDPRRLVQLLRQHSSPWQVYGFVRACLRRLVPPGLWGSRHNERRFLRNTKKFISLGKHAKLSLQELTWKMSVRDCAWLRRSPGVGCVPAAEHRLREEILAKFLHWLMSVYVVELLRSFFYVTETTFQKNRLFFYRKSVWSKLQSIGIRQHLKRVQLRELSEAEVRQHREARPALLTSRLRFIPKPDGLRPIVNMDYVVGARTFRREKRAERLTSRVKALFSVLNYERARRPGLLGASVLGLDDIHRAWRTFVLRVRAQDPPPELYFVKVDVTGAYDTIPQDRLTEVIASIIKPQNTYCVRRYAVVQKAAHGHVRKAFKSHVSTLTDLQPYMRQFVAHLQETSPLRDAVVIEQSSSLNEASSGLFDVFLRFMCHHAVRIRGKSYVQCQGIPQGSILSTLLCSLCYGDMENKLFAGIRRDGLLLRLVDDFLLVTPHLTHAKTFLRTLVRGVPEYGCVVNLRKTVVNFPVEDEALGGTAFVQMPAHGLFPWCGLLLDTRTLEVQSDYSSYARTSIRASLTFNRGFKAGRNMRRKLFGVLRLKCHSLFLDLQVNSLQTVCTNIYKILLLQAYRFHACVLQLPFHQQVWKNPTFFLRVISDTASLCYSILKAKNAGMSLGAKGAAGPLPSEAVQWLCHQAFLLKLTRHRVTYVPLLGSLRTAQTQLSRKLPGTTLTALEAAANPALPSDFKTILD
T1 sequence (O60832 whole entry partner): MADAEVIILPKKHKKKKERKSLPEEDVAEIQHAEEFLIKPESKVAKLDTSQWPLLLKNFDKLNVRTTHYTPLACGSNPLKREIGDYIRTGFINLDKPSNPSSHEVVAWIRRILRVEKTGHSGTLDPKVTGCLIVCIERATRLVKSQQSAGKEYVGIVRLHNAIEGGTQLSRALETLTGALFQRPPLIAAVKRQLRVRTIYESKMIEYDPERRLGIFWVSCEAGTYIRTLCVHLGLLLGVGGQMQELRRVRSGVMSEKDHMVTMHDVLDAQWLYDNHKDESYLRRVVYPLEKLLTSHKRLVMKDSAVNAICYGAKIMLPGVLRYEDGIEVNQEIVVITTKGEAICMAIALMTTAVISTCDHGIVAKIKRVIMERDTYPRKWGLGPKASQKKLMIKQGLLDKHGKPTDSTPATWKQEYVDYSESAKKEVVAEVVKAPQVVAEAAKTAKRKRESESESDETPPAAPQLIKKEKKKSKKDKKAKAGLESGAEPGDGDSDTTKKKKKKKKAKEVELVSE
T1 sequence (Q9NX24 whole entry partner): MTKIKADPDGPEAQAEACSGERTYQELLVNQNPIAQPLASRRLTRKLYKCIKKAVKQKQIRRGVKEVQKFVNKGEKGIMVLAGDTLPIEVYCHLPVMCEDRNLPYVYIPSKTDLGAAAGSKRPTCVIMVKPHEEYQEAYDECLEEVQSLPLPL
T1 sequence (Q9NPE3 whole entry partner): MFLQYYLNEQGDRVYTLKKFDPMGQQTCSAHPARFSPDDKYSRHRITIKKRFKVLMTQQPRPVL
T1 sequence (Q9NY12 whole entry partner): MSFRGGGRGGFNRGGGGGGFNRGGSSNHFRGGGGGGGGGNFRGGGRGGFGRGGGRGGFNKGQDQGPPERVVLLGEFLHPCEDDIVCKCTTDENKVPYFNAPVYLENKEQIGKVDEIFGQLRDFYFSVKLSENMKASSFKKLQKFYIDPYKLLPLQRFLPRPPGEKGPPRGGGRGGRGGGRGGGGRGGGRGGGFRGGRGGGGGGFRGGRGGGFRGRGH
Experimental: Telomerase activity was detected by a modified version of the general TRAP protocol. Telomerase products were resolved by 10% polyacrylamide gel electrophoresis and visualized by staining with SYBER Green. As a source of telomerase, the total cell lysates derived from lung cancer cell line H1299 cells were used. Protein concentration of the lysates was assayed using Bio-Rad protein assay kit using BSA standards.
In the FIGS. 3A, 3B and FIG. 4, a positive control group (P) used water that had been sterilized three times in the assay; while a negative control group (N) used RNase A (CLONTECH) (5 μL, 0.1 mg/mL) in the assay.
In the positive control group (P), due to the absence of inhibitor, the telomerase could extend the telomere, such that some longer telomere fragments could be observed; while there was not observed in the negative control group (N). In the result of TRAP assay (FIG. 3A to 3B), compounds with a concentration of 10 μM was used as the preliminary screening. In the gel, standard compound A was 1,2-diaminoanthraquinone, D was doxorubicin, and M was mitoxantrone.

Row | SMILES | activity at 1 µM ([1]; 1 μM) | activity at 10 µM ([1]; 10 μM) | activity at 100 µM [1] | viability at 72 h, 1 µM [2] | viability at 72 h, 1 µM [4] | viability at 72 h, 10 µM [4] | viability at 72 h, 100 µM [4] | further results
1 | Nc1ccc2c(c1N)C(=O)c1ccccc1C2=O [1,2-diaminoanthraquinone, reference compound] | 98.5 ± 11.7% | 77.3 ± 11.6% | 18.2 ± 4.45% | 105 ± 9.37% |  |  |  | viability at 72 h, 10 µM [2]: 95.5 ± 3.75%; viability at 72 h, 100 µM [2]: 39.3 ± 8.84%
2 | O=C1c2ccccc2C(=O)c2c1ccc1nc(CCl)[nH]c21 [CL01, 2-(chloromethyl)-1H-anthra[1,2-d]imidazole-6,11-dione] | 69.2 ± 1.89% | -0.58 ± 1.16% | 2.87 ± 1.42% | 82.3 ± 6.19% |  |  |  | Relative MTT viability (%) ([3]; human, 72 h, 100 µM): −5.28 ± 1.13%; viability at 72 h, 10 µM [2]: < 50%
3 | CN(Cc1nc2ccc3c(c2[nH]1)C(=O)c1ccccc1C3=O)Cc1c2ccccc2cc2ccccc12 [CL11, 2-(((anthracen-10-yl)-N-methylmethanamino)methyl)-1H-anthra[1,2-d]imidazole-6,11-dione] |  |  |  |  |  |  |  | Relative MTT viability (%) ([3]; 1 µM): 98.03 ± 4.48%; Relative MTT viability (%) ([3]; 10 µM): 83.80 ± 5.64%; Relative SEAP activity (%) ([1]; 1 μM): 101.69 ± 5.82%; Relative SEAP activity (%) ([1]; 10 μM): 77.46 ± 6.40%
4 | O=C1c2ccccc2C(=O)c2c1ccc1nc(CN3CCC(CCCC4CCNCC4)CC3)[nH]c21 [CL20, 2-((4-(3-(piperidin-4-yl)propyl)piperidin-1-yl)methyl)-1H-anthra[1,2-d]imidazole-6,11-dione] | 96 ± 5.48% | 7.52% | 3.08% |  | 97 ± 4.74% | < 50% |  | telomerase inhibiting effect (TRAP) ([5]; 1 μM): telomerase inhibiting effect could be observed still; inhibition effect/activity of telomerase (TRAP) [5]: more significant inhibition effect/activity of telomerase; also recorded: highest inhibition effect/activity of telomerase
5 | CCN1CCN(Cc2nc3ccc4c(c3[nH]2)C(=O)c2ccccc2C4=O)CC1 [CL25, 2-((4-ethylpiperazin-1-yl)methyl)-1H-anthra[1,2-d]imidazole-6,11-dione] | 91.8 ± 3% | 13.6% | -4.43% |  | 86.2 ± 5.18% | < 50% |  | inhibition effect/activity of telomerase (TRAP) [5]: more significant inhibition effect/activity of telomerase
6 | O=C1c2ccccc2C(=O)c2c1ccc1nc(CN3CCN(c4ccccc4F)CC3)[nH]c21 [CL30, 2-((4-(2-fluorophenyl)piperazin-1-yl)methyl)-1H-anthra[1,2-d]imidazole-6,11-dione] | 103 ± 3.44% | 78.2% | -0.29% |  | 88.4 ± 2.16% | 76.7% | 14.8% | 
7 | N#Cc1ccccc1N1CCN(Cc2nc3ccc4c(c3[nH]2)C(=O)c2ccccc2C4=O)CC1 [CL31, 2-((4-(2-cyanophenyl)piperazin-1-yl)methyl)-1H-anthra[1,2-d]imidazole-6,11-dione] | 106 ± 4.67% | 56.7% | 5.59% |  | 78.3 ± 5.02% | 61.7% | 21.6% | 
8 | COc1cccc(N2CCN(Cc3nc4ccc5c(c4[nH]3)C(=O)c3ccccc3C5=O)CC2)c1 [CL32, 2-((4-(3-methoxyphenyl)piperazin-1-yl)methyl)-1H-anthra[1,2-d]imidazole-6,11-dione] | 105 ± 5.64% | < 50% | 3.33% | 81.3 ± 9.72% |  |  |  | viability at 72 h, 10 µM [2]: > 50%; viability at 72 h, 100 µM [2]: 23.9%
9 | O=C1c2ccccc2C(=O)c2c1ccc1nc(CN3CCN(Cc4ccccc4)CC3)[nH]c21 [CL33, 2-((4-benzylpiperazin-1-yl)methyl)-1H-anthra[1,2-d]imidazole-6,11-dione] | 97.8 ± 7.2% |  | -2.7% |  | 92.6 ± 1.56% | > 50% | 12.7% | 
10 | O=C(CCCl)Nc1ccc2c(c1NC(=O)CCCl)C(=O)c1ccccc1C2=O [CL34, 1,2-bis(3-chloropropionamido)anthraquinone] | 87.4 ± 4.51% | 12.5 ± 4.35% | -2.74 ± 0.61% |  | 94.1 ± 3.21% | < 50% | 5.85 ± 2.1% | 
11 | CN1CCN(CCc2nc3ccc4c(c3[nH]2)C(=O)c2ccccc2C4=O)CC1 [CL36, 2-(2-(4-methylpiperazin-1-yl)ethyl)-1H-anthra[1,2-d]imidazole-6,11-dione] | 73.9 ± 3.2% | 7.1% | -3.06% |  | 87.2 ± 6.98% | < 50% |  | 
12 | O=C1c2ccccc2C(=O)c2c1ccc1nc(CCN3CCN(c4ccccc4)CC3)[nH]c21 [CL37, 2-(2-(4-phenylpiperazin-1-yl)ethyl)-1H-anthra[1,2-d]imidazole-6,11-dione] | 104 ± 4.96% | 92.7% | 36.6% | 94 ± 0.98% |  |  |  | viability at 72 h, 10 µM [2]: 96.5%
13 | O=C1c2ccccc2C(=O)c2c1ccc1nc(CCN3CCN(c4ncccn4)CC3)[nH]c21 [CL39, 2-(2-(4-(pyrimidin-2-yl)piperazin-1-yl)ethyl)-1H-anthra[1,2-d]imidazole-6,11-dione] | 83 ± 3.61% | < 50% | -8.09% |  | 90.7 ± 5.81% |  |  | 
14 | O=C1c2ccccc2C(=O)c2c1ccc1nc(CCN3CCN(Cc4ccccc4)CC3)[nH]c21 [CL40, 2-(2-(4-benzylpiperazin-1-yl)ethyl)-1H-anthra[1,2-d]imidazole-6,11-dione] | 73 ± 8.24% |  | -7.29 ± 0.0949% |  | 95.6 ± 8.22% | > 50% | 6.65% | 
15 | COc1cccc2c1C(=O)c1c(O)c3c(c(O)c1C2=O)C[C@@](O)(C(=O)CO)C[C@@H]3O[C@H]1C[C@H](N)[C@H](O)[C@H](C)O1 [doxorubicin, reference compound] | 33.8 ± 3.22% | 13.6 ± 3.56% | 5.18 ± 4.01% | 17.1 ± 5.37% |  |  |  | Relative MTT viability (%) ([3]; human, 72 h, 10 µM): −9.79 ± 2.78%; Relative MTT viability (%) ([3]; human, 72 h, 100 µM): −11.38 ± 4.34%
16 | O=C1c2c(O)ccc(O)c2C(=O)c2c(NCCNCCO)ccc(NCCNCCO)c21 [mitoxantrone, reference compound] | 20.8 ± 1.56% | 9.92 ± 4.8% | 7.19 ± 1.59% | 23.7 ± 8.06% |  |  |  | Relative MTT viability (%) ([3]; human, 72 h, 10 µM): −8.51 ± 1.13%; Relative MTT viability (%) ([3]; human, 72 h, 100 µM): −0.44 ± 1.01%
